How the values were obtained:
Rattus norvegicus [1] = assay: Total bone mineral density in ovariectomized rat when treated with compound at 10 mg/kg dose; type: functional
[2] = molecular target: Estrogen receptor beta (Rattus norvegicus) (UniProt Q62986); conditions: Prostate gland
Estrogen receptor beta [3] = molecular target: Estrogen receptor beta (Mus musculus, UniProt O08537)
Estrogen receptor beta [4] = molecular target: Estrogen receptor beta (Rattus norvegicus, UniProt Q62986)
Estrogen receptor [5] = molecular target: T1, Estrogen receptor (Rattus norvegicus, UniProt P06211)
T1 sequence (P06211 whole entry): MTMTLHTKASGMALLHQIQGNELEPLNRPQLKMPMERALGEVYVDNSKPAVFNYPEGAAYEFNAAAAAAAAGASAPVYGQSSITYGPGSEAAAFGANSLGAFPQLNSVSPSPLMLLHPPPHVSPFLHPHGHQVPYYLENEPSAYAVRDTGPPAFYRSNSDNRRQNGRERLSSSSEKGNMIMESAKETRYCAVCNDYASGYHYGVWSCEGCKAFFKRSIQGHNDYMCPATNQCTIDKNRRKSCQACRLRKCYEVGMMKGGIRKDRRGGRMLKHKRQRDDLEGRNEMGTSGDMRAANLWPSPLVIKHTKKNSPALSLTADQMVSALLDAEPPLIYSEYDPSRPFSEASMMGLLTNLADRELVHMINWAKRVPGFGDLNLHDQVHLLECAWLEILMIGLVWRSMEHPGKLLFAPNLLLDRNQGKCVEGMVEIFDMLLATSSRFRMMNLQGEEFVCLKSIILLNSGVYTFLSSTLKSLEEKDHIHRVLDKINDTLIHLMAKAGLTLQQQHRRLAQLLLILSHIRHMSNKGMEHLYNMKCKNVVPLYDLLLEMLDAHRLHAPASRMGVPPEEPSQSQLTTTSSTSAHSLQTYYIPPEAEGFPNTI

Rattus norvegicus [6] = assay: Trabecular bone mineral density in ovariectomized rat when treated with compound at 10 mg/kg dose; type: functional, Trabecula
Estrogen receptor [7] = molecular target: T2, Estrogen receptor (Mus musculus, UniProt P19785)
T2 sequence (P19785 whole entry): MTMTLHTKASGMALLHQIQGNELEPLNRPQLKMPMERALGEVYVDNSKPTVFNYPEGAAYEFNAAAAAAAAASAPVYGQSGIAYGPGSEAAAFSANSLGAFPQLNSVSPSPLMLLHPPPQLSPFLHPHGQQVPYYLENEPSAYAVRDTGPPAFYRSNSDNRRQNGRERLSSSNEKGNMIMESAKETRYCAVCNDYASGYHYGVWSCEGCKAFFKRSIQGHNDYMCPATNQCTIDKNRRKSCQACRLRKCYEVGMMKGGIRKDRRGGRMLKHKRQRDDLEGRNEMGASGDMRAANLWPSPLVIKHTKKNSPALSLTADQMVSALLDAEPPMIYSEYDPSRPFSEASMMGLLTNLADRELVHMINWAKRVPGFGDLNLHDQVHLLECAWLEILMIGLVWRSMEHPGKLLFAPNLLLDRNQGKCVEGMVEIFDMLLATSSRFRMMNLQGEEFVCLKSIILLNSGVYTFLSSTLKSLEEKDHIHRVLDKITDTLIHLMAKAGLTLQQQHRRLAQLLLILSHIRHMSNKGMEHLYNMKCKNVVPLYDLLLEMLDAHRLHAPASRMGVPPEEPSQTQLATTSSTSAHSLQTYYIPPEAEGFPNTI

Rattus norvegicus [8] = species on record: Rattus norvegicus; assay: Effect of combination of compound and PPT on rat vasomotor instability in terms of tail skin temperature change 15 min after naloxone injection; type: functional
Estrogen receptor beta [9] = molecular target: Estrogen receptor beta (Homo sapiens, UniProt Q92731)
Sequence of Estrogen receptor beta (Homo sapiens, UniProt Q92731) (Q92731 whole entry): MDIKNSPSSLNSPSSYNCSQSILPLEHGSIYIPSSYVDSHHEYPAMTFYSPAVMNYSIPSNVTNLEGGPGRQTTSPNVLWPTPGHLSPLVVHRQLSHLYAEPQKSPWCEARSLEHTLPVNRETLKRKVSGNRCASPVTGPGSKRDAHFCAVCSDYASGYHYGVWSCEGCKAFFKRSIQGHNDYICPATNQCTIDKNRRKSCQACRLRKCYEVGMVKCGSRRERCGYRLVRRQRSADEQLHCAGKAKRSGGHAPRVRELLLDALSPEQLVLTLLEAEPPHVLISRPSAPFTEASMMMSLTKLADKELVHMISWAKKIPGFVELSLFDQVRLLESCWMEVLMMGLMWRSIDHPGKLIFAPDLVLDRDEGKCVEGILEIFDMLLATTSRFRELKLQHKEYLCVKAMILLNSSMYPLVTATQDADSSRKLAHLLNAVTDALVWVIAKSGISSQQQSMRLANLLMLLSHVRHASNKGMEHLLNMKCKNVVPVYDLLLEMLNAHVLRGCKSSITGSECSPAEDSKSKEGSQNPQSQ

Estrogen receptor [10] = molecular target: T3, Estrogen receptor (Homo sapiens, UniProt P03372)
T3 sequence (P03372 whole entry): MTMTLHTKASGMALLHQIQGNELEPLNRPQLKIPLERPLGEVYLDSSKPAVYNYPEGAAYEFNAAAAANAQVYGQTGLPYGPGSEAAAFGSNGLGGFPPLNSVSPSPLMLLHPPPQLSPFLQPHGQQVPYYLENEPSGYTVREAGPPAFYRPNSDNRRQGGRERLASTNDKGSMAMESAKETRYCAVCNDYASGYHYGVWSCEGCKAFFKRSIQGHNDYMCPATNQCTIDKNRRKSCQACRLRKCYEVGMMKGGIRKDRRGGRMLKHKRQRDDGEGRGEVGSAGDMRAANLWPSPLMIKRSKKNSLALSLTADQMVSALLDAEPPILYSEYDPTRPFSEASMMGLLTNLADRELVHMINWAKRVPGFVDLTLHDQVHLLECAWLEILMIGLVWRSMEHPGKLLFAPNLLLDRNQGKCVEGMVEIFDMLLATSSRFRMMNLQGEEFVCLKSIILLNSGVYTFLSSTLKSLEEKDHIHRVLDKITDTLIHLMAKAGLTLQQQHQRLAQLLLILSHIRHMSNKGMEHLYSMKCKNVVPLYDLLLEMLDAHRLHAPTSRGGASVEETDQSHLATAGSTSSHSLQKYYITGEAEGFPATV

Mus musculus = species on record: Mus musculus; conditions: dose 50 mg/kg
Description: Weight of mouse uterine when treated with compound at 50 mg/kg dose was determined

[11] = molecular target: Estrogen receptor beta (Rattus norvegicus) (UniProt Q62986); conditions: Prostate gland; remark: listed apart in the source

Sequence of Estrogen receptor beta (Mus musculus, UniProt O08537) (O08537 whole entry): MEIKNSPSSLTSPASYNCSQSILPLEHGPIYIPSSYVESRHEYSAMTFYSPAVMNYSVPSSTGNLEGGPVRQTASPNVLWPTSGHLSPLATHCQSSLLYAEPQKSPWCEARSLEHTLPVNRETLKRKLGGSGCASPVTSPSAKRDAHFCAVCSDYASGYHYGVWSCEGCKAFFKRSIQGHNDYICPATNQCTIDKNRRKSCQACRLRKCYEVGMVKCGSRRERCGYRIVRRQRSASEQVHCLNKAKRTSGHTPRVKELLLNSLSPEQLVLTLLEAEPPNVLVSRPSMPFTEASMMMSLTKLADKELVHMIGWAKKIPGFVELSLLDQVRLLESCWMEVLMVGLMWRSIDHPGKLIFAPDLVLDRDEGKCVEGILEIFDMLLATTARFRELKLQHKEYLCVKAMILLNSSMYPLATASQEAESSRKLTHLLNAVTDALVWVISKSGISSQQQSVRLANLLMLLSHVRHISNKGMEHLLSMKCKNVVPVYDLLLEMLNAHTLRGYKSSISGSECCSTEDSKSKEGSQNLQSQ
Sequence of Estrogen receptor beta (Rattus norvegicus) (Q62986 whole entry): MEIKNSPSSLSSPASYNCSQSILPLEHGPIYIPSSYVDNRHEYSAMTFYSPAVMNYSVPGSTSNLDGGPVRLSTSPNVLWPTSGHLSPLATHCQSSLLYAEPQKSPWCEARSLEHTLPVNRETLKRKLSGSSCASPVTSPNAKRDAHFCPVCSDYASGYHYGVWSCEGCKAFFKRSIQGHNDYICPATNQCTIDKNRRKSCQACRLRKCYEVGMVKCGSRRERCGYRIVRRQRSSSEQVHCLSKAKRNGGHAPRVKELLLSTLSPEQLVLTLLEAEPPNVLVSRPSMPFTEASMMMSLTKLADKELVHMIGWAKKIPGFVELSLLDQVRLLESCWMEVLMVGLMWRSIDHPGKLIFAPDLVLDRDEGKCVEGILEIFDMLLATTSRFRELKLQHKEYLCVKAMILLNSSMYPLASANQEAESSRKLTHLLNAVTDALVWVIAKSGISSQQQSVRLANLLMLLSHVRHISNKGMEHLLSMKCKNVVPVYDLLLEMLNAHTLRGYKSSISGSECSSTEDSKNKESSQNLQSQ
Sequence of Estrogen receptor beta (Rattus norvegicus, UniProt Q62986) (Q62986 whole entry): as above

SMILES	IC50 (Estrogen receptor beta [9]) [nM]	IC50 (Estrogen receptor [10]) [nM]	also measured
Oc1cc(Br)c2oc(-c3ccc(O)c(F)c3)nc2c1			Density (Rattus norvegicus [1]): 501.4 mg/cm3; Weight [2]: 119 mg; IC50 (Estrogen receptor beta [3]): 2.7 nM; IC50 (Estrogen receptor beta [4]): 2 nM; IC50 (Estrogen receptor [5]): 171 nM; Density (Rattus norvegicus [6]): 312.34 mg/cm3; IC50 (Estrogen receptor [7]): 199 nM
N#Cc1cc(O)cc2nc(-c3ccc(O)cc3)oc12			IC50 (Estrogen receptor beta [3]): 4.3 nM; IC50 (Estrogen receptor beta [4]): 4 nM; IC50 (Estrogen receptor [5]): 362 nM; Activity (Rattus norvegicus [8]): 2.7
Oc1ccc(-c2nc3cc(O)cc(/C=C\Br)c3o2)cc1	45	4650	
O/N=C/c1cc(O)ccc1-c1noc2cc(O)ccc12	383	2390	
N#CCc1cc(O)ccc1-c1noc2cc(O)ccc12	96	717	
Oc1ccc2nc(-c3ccc(O)c(F)c3)oc2c1		8430	
O=Cc1cc(O)cc2nc(-c3ccc(O)cc3)oc12			IC50 (Estrogen receptor beta [3]): 16.5 nM; IC50 (Estrogen receptor beta [4]): 29 nM; IC50 (Estrogen receptor [5]): 2250 nM
Cc1cc(O)c2cccc(-c3nc4ccc(O)cc4o3)c2c1	6	163	
COc1cc(O)c(Br)c2nc(-c3ccc(O)c(F)c3)oc12	52	2670	
C=Cc1cc(O)cc2nc(-c3ccc(O)cc3)oc12		447	
COc1c(Br)c(O)c(Br)c2nc(-c3ccc(O)c(F)c3)oc12	64	559	
N#Cc1cc(O)ccc1-c1noc2cc(O)ccc12	12	264	
COC(=O)c1cc(O)cc2nc(-c3ccc(O)cc3)oc12	356	> 5000	
Oc1ccc(-c2noc3ccccc23)c(O)c1	718	6100	
CCCCOc1cc(-c2nc3ccc(O)cc3o2)ccc1O	3660	6240	
Oc1cc(/C=C\F)c2oc(-c3ccc(O)c(F)c3)nc2c1	3.2	376	Weight (Mus musculus): 9.8 mg
C=Cc1cc(O)cc2nc(-c3cc(F)c(O)cc3F)oc12	66	4040	
N#Cc1cc(O)cc2nc(-c3ccc(O)cc3F)oc12	2.4	138	
CC(C)C(=O)Nc1ccc([N+](=O)[O-])c(C(F)(F)F)c1			Weight [11]: 15.2 mg

SMILES	IC50 (Estrogen receptor beta [9]) [nM]	IC50 (Estrogen receptor [10]) [nM]	also measured
C=Cc1cc(O)cc2nc(-c3ccc(O)cc3C)oc12	27	1120	
Oc1ccc(-c2nc3cc(O)ccc3o2)cc1			IC50 (Estrogen receptor beta [3]): 9.9 nM; IC50 (Estrogen receptor beta [4]): 2.2 nM; IC50 (Estrogen receptor [7]): 1630 nM
C=CCc1cc(O)cc2nc(-c3ccc(O)cc3)oc12	13	727	Weight (Mus musculus): 10 mg
Oc1ccc(-c2nc3cc(O)cc(Br)c3o2)cc1			Density (Rattus norvegicus [1]): 525.51 mg/cm3; IC50 (Estrogen receptor beta [3]): 1.7 nM; IC50 (Estrogen receptor beta [4]): 1.2 nM; IC50 (Estrogen receptor [5]): 132 nM; Density (Rattus norvegicus [6]): 287.56 mg/cm3; IC50 (Estrogen receptor [7]): 132 nM; Activity (Rattus norvegicus [8]): 1.9
C=Cc1cc(O)cc2nc(-c3ccc(O)cc3F)oc12			Weight (Mus musculus): 10.3 mg
C/C=C\c1cc(O)cc2nc(-c3ccc(O)cc3)oc12	1.42	775	
Oc1ccc(-c2nc3ccc(O)cc3o2)cc1			IC50 (Estrogen receptor beta [3]): 9.5 nM; IC50 (Estrogen receptor beta [4]): 20 nM; IC50 (Estrogen receptor [5]): 821 nM; IC50 (Estrogen receptor [7]): 1340 nM
Oc1ccc(-c2nc3cc(O)cc(/C=C\Br)c3o2)c(F)c1	16	196	
C/C=C\c1cc(O)cc2nc(-c3ccc(O)cc3F)oc12	23	539	
Oc1ccc(-c2noc3cc(O)ccc23)cc1			IC50 (Estrogen receptor beta [3]): 13 nM; IC50 (Estrogen receptor beta [4]): 36 nM; IC50 (Estrogen receptor [5]): 716 nM; IC50 (Estrogen receptor [7]): 1090 nM
Oc1ccc2nc(-c3cccc(O)c3O)oc2c1		2350	
C=Cc1cc(O)cc2nc(-c3ccc(O)c(F)c3)oc12 [PRINABEREL]			Weight [2]: 132 mg; IC50 (Estrogen receptor beta [3]): 3.7 nM; IC50 (Estrogen receptor beta [4]): 3.14 nM; IC50 (Estrogen receptor [5]): 618 nM; IC50 (Estrogen receptor [7]): 746 nM
Oc1ccc2c(-c3ccccc3O)noc2c1		3000	
C=Cc1cc(O)cc2nc(-c3c(F)cc(O)cc3F)oc12	2.2	249	Weight (Mus musculus): 10 mg
C=CCc1cc(O)cc2nc(-c3ccc(O)cc3F)oc12	3	98	
O=C(O)c1cc(O)cc2nc(-c3ccc(O)cc3)oc12	> 5000	> 5000	
Oc1ccc2c(-c3nc4cc(F)c(O)cc4o3)cccc2c1	46	434	
Oc1ccc(-c2noc3ccc(O)cc23)c(O)c1	138	4070	

Reference: ChEMBL document CHEMBL1138773, “Design and synthesis of aryl diphenolic azoles as potent and selective estrogen receptor-beta ligands” (J Med Chem, 2004)
